Source: patent EP2604624A1, “Bowman-Birk protease Inhibitor (BBI) binding peptides, and uses thereof in the separation, detection or purification of BBI” (University College Dublin National University Of Ireland, …, priority 2011, dated 2013)

Key:
Details in all cases: biotinylated peptide 0 to 200 µg.mL, streptavidin-HRP detection
[1] = tested on: BBI
Procedure: (§1) The C-terminus was elongated with a GGGS-CONH2 tail to mimic the GGGS-peptide spacer between the random peptide sequence and the phage protein pIII and to block the negative charge of the carboxyl terminus. […] All synthetic peptides were reconstituted in sterile deionised H2O to a concentration of 2 mg/mL. The ability of biotinylated synthetic peptides (from 0 to 200 µg.mL) to bind to the immobilized purified Bowman-Birk inhibitor, soy pulp and soy whey extracts (and BSA as a negative control) was analyzed in solid phase assays. In this case, the biotinylated synthetic peptides were incubated on BBI coated wells (100 µg.mL) and detected using a streptavidin-HRP conjugate (1:500). Binding and absorbance readings are finally carried out using the TMB substrate as described before.

[2] = tested on: soy pulp
Procedure: as §1

[3] = tested on: soy whey
Procedure: as §1

GAMHLPWHMGTLGGGS-1,2-diaminoethane-biotin [peptide 1]
Dose-dependent binding: binding to BBI [1] | binding to soy pulp [2] | binding to soy whey [3]
